# Laboratory results from ChEMBL document CHEMBL1128983, “Synthesis and biological activity of novel sialyl-lewisX conjugates” (Bioorg Med Chem Lett, 1996).
# Target: T1, E-selectin (Homo sapiens, UniProt P16581)
# T1 sequence (P16581 whole entry): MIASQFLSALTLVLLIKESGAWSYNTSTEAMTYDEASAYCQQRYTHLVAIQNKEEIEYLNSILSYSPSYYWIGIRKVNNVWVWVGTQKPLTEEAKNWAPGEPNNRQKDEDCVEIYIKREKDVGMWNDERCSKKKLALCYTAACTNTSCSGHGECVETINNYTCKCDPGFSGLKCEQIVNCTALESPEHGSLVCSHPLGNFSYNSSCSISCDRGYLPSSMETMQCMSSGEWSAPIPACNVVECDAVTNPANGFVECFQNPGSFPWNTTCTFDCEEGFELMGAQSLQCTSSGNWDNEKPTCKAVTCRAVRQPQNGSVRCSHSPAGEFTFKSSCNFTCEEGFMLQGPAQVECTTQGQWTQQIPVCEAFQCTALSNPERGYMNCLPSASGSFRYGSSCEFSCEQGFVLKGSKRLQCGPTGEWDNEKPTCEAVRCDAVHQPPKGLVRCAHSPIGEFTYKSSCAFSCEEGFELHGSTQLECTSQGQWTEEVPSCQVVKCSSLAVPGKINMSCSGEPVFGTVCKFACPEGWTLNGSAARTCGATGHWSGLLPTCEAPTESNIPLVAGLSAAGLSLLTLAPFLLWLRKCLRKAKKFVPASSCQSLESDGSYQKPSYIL
# Assay: Compound was tested for inhibition of HL60 cell adhesion to recombinant Selectin E IgG fusion protein obtained from transfected COS cells
# Assay type: functional, cell-based, HL-60
row,IC50,Compound
1,590 µM,CC(=O)N[C@@H]1[C@H](OCCCCCCNC(=O)CCCC[C@@H]2SC[C@@H]3NC(=O)N[C@@H]32)O[C@@H](CO)[C@@H](O[C@@H]2O[C@@H](CO)[C@H](O)[C@H](O[C@]3(C(=O)O)C[C@@H](O)[C@@H](NC(C)=O)[C@H]([C@H](O)[C@H](O)CO)O3)[C@@H]2O)[C@@H]1O[C@@H]1O[C@@H](C)[C@@H](O)[C@H](O)[C@@H]1O
2,1000 µM,CC(=O)N[C@@H]1[C@H](OCCCCCCN)O[C@@H](CO)[C@@H](O[C@@H]2O[C@@H](CO)[C@H](O)[C@H](O[C@]3(C(=O)O)C[C@@H](O)[C@@H](NC(C)=O)[C@H]([C@H](O)[C@H](O)CO)O3)[C@@H]2O)[C@@H]1O[C@@H]1O[C@@H](C)[C@@H](O)[C@H](O)[C@@H]1O
3,5000 µM,CC(=O)N[C@H]1[C@H]([C@H](O)[C@H](O)CO)O[C@@](O[C@@H]2[C@H](O)[C@H](O[C@H]3[C@H](O[C@@H]4O[C@@H](C)[C@@H](O)[C@H](O)[C@@H]4O)[C@H](NC(C)=O)[C@H](NC(=O)[C@H](C)NC(=O)[C@@H]4CCCN4C(=O)CNC(=O)CNC(=O)[C@@H]4CCCN4C(=O)CN)O[C@H]3CO)O[C@@H](CO)[C@@H]2O)(C(=O)O)C[C@H]1O
4,1150 µM,CC(=O)N[C@@H]1[C@H](OCCCCCCNC(=O)CCC(=O)O)O[C@@H](CO)[C@@H](O[C@@H]2O[C@@H](CO)[C@H](O)[C@H](O[C@]3(C(=O)O)C[C@@H](O)[C@@H](NC(C)=O)[C@H]([C@H](O)[C@H](O)CO)O3)[C@@H]2O)[C@@H]1O[C@@H]1O[C@@H](C)[C@@H](O)[C@H](O)[C@@H]1O
5,280 µM,CC(=O)N[C@@H]1[C@H](OCCCCCCNC(=O)[C@H]2CC[C@H](CN3C(=O)C=CC3=O)CC2)O[C@@H](CO)[C@@H](O[C@@H]2O[C@@H](CO)[C@H](O)[C@H](O[C@]3(C(=O)O)C[C@@H](O)[C@@H](NC(C)=O)[C@H]([C@H](O)[C@H](O)CO)O3)[C@@H]2O)[C@@H]1O[C@@H]1O[C@@H](C)[C@@H](O)[C@H](O)[C@@H]1O
6,650 µM,CC(=O)N[C@@H]1[C@H](OCCCCCC/N=C(S)/N=C2\C=CC(=C3c4ccc(O)cc4Oc4cc(O)ccc43)C(C(=O)O)=C2)O[C@@H](CO)[C@@H](O[C@@H]2O[C@@H](CO)[C@H](O)[C@H](O[C@]3(C(=O)O)C[C@@H](O)[C@@H](NC(C)=O)[C@H]([C@H](O)[C@H](O)CO)O3)[C@@H]2O)[C@@H]1O[C@@H]1O[C@@H](C)[C@@H](O)[C@H](O)[C@@H]1O
7,> 1000 µM,CC(=O)N[C@H]1[C@H]([C@H](O)[C@H](O)CO)O[C@@](O[C@@H]2[C@H](O)[C@H](O[C@H]3[C@H](O[C@@H]4O[C@@H](C)[C@@H](O)[C@H](O)[C@@H]4O)[C@H](NC(C)=O)[C@H](NC(=O)[C@H](C)NC(=O)[C@H](CC(=O)O)NC(=O)CNC(=O)[C@@H](N)CCCN=C(N)N)O[C@H]3CO)O[C@@H](CO)[C@@H]2O)(C(=O)O)C[C@H]1O
